# According to PMC9732821, “Neurotrophic Activity and Its Modulation by Zinc Ion of a Dimeric Peptide Mimicking the Brain-Derived Neurotrophic Factor N-Terminal Region” (ACS Chemical Neuroscience, 2022):
# B1: brain-derived neurotrophic factor (protein, UniProt P23560 1-247, looked up)
# chain: MTILFLTMVISYFGCMKAAPMKEANIRGQGGLAYPGVRTHGTLESVNGPKAGSRGLTSLADTFEHVIEELLDEDQKVRPNEENNKDADLYTSRVMLSSQVPLEPPLLFLLEEYKNYLDAANMSMRVRRHSDPARRGELSVCDSISEWVTAADKKTAVDMSGGTVTVLEKVPVSKGQLKQYFYETKCNPMGYTKEGCRGIDKRHWNSQCRTTQSYVRALTMDSKKRIGWRFIRIDTSCVCTLTIKRGR
# modifications: full-length
# notes: full-length human BDNF produced recombinantly in Escherichia coli
# Assays:
# membrane-bound BDNF = assay: membrane-bound BDNF, non-permeabilizing immunofluorescence in differentiated SH-SY5Y cells; assay type: cell-based, human; conditions: 1 h
# Excerpt: The possibility of mimicking the function of the full-length BDNF protein by using a linear peptide fragment encompassing the first 12 amino acids of the mature NT N-terminal was already postulated.[31] Here, we named this sequence as m-bdnf (Figure 1A) and performed a systematic comparison between the performance of the full-length human BDNF produced recombinantly in Escherichia coli([32]) and (i) m-bdnf, (ii) a dimeric peptide displaying two copies of the m-bdnf sequence covalently bound by a disulfide bridge (d-bdnf), and (iii) a monomeric peptide displaying the scrambled sequence of m-bdnf (s-bdnf). We first investigated the ability of these peptides to activate the TrkB receptor. […] Specifically, an EC50 concentration of BDNF (1 nM) or of d-bdnf (10 μM) was used in combination with the increasing concentration of d-bdnf and BDNF, respectively, and the increase of ERK phosphorylation was assessed. […] Of note, we also performed a non-permeabilizing immunofluorescence analysis to quantify the membrane-bound BDNF in differentiated SH-SY5Y cells in the absence or presence of BDNF and d-bdnf (Figure S1C,D). […] The same increment was not observed upon treatment with the d-bdnf peptide, while instead we measured a slight (∼18%) decrease of the signal possibly due to the ability of the peptide to displace endogenous BDNF at the tested dose (10 μM). […]
# ERK = ERK phosphorylation in HEK 293 cells, which do not express TrkB; assay type: cell-based, human; conditions: increasing concentrations, 10 min, unstimulated control 100%
# Protocol: Figure S1. Evaluation of d-bdnf mechanism of action. A) ERK phosphorylation levels detected in HEK293T cells, after stimulation (10 min) with increasing concentrations of BDNF (white columns) or d-bdnf (grey columns) normalized to the unstimulated control (CTRL, black column) set to 100%.
# Dunnett’s multiple comparison test. B) ERK phosphorylation levels detected in differentiated SH-SY5Y cells, after stimulation (10 min) with a combination of a single concentration of BDNF (1 nM referred to monomeric form) with increasing concentrations (10 nM-100 µM) of d-bdnf (left); B) a combination of a single concentration of d-bdnf (10 µM) with increasing concentrations (0.074 nM – 10 nM) of BDNF (right). […] C) Representative confocal fluorescence images of SH-SY5Y cells differentiated with retinoic acid (RA) and treated acutely with BDNF, d-bdnf or a combination of the two. […] Scale bar: 50 µm.D) Scatter dot plot of the mean ± SEM fluorescence intensity of the analyzed fields (nfields) for the different samples (NT: nfields=9 and total ncells= 285; BDNF: nfields=10 and total ncells= 297; d-bdnf: nfields=10 and total ncells= 255 cells; BDNF+d-bdnf: nfields=10 and total ncells= 253 cells; **p<0.01 according to […]
# HSDPARRGELSV-NH2 (m-bdnf): Rt = 25.2 min. ESI-MS: calculated for C54H91N21O18: 1322.4 […]
# SRAGPHLRDVSE-NH2 (s-bdnf): Rt = 27.4 min. ESI-MS: calculated for C54H91N21O18: 1322.4 […]
Molecule,decrease of membrane-bound BDNF fluorescent signal (membrane-bound BDNF; d-bdnf 10 μM),ERK phosphorylation in HEK 293 cells (ERK),increase of membrane-bound BDNF fluorescent signal (membrane-bound BDNF; BDNF 150 ng/mL)
HSDPARRGELSVC-C-VSLEGRRAPDSH (disulfide) [d-bdnf],~18%,not significantly different,–
B1,–,not significantly different,~40%
